Peptide text beside a SMILES is read from it.
Columns and labels:
HDAC6 = target: T1, HDAC6 (Homo sapiens, UniProt Q9UBN7); assay: HDAC6 inhibition, full IC50 measurement (Reaction Biology; fluorogenic p53 peptide RHKK(Ac)AMC); type: biochemical
T1 construct: purchased Reaction Biology Corporation (assay run by the CRO)
T1 sequence (Q9UBN7 1-1215): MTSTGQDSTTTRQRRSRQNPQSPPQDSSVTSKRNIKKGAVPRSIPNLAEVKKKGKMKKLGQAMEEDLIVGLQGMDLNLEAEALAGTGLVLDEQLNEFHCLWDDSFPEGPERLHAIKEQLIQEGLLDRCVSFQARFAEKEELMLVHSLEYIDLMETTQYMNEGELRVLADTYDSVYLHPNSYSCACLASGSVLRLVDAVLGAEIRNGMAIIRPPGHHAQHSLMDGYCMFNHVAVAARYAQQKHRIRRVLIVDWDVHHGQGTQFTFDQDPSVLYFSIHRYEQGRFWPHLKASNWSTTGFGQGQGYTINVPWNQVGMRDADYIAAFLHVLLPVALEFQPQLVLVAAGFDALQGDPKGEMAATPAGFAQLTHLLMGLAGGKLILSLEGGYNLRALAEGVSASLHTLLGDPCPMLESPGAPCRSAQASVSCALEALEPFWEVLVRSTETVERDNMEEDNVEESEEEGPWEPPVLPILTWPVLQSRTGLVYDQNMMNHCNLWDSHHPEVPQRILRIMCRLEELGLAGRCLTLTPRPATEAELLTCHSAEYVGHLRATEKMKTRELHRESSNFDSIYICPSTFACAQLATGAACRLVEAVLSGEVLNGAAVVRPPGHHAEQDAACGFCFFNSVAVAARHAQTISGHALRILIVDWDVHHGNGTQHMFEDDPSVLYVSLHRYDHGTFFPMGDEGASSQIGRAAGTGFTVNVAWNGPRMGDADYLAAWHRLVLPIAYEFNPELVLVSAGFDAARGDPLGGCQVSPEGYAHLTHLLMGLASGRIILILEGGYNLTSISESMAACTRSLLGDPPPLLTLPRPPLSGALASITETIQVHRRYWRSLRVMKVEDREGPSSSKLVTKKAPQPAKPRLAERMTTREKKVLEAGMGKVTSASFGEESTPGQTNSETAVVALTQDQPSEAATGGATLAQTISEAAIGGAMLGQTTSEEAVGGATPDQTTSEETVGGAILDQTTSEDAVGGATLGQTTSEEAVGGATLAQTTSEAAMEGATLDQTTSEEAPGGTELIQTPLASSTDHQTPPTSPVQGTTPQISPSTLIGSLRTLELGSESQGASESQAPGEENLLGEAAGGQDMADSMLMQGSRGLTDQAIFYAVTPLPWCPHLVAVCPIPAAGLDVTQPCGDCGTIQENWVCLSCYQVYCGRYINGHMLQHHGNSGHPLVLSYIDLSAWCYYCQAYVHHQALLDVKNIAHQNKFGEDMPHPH
Protocol: (§1) The assay was performed using 50 μM fluorogenic peptide from p53 residues 379-382 [RHKK(Ac)AMC] in a base reaction buffer of 50 mM Tris-HCl at pH 8.0, 137 mM NaCl, 2.7 mM KCl, 1 mM MgCl2, and freshly added 1 mg/ml BSA and 1% DMSO. Peptides were first dissolved in DMSO and then added to the reaction mixture with the enzyme using acoustic technique, enough to reach the desired concentration for that assay point. Peptide concentrations were calculated based on mass of lyophilized peptide and its molecular weight. The substrate was then added and incubated for 1 hour at 30 °C in a sealed container. After the incubation, developer was added to stop the reaction and develop color. Kinetic measurements were then performed for 20 min with Envision with 5 min intervals (Ex/Em = 360/460 nm). The endpoint after plateau was taken for IC50 measurement.
(§2) In cases where duplicate measures are used, average data is reported in the main text or Supplementary Tables.

HDAC2 = target: T2, HDAC2 (Homo sapiens, UniProt Q92769); assay: HDAC2 inhibition, full IC50 measurement (Reaction Biology; fluorogenic p53 peptide RHKK(Ac)AMC); type: biochemical
T2 construct: purchased Reaction Biology Corporation (assay run by the CRO)
Protocol: as §1, §2

T2 sequence (Q92769 whole entry): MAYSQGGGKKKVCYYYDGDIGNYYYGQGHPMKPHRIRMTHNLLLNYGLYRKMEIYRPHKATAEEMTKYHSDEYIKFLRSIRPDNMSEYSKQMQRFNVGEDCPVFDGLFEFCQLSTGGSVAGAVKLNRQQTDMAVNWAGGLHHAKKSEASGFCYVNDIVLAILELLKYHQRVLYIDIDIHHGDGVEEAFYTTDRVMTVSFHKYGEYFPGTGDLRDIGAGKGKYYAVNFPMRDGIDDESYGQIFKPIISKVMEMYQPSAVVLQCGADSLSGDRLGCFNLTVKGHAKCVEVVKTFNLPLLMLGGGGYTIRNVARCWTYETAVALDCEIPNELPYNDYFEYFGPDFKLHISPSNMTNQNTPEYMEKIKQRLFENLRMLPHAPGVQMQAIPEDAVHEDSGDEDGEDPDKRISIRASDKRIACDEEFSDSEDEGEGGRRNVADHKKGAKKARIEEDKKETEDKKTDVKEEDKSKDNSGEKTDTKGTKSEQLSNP

## CCCC[C@H]1NC(=O)[C@H](CC(=O)O)NC(=O)[C@@H](CO)NC(=O)[C@@H](C)NC(=O)[C@H](CCCCN)NC(=O)[C@@H](CCCCN)NC(=O)[C@H](Cc2ccccc2)NC(=O)[C@H](CCCCCS)NC1=O [des4.3.1.2, SHA-Phe-dLys-Lys-dAla-dSer-Asp-dNle] (HELM PEPTIDE1{D.[CCCC[C@@H](N[*:1])C(=O)[*:2]].[O=C([C@H](CCCCCS)N[*:1])[*:2]].F.[dK].K.[dA].[dS]}$PEPTIDE1,PEPTIDE1,1:R1-8:R2$$$V2.0)
HDAC6
  6-Selectivity: fold potency for HDAC6 over HDAC2: > 100 fold
HDAC6; Conc. 1.00E-05 M, t1
  HDAC6 activity raw data (signal): 342990
HDAC6; Conc. 1.00E-05 M, t2
  HDAC6 activity raw data (signal): 304678
HDAC6; Conc. 1.11E-06 M, t1
  HDAC6 activity raw data (signal): 1091316
HDAC6; Conc. 1.11E-06 M, t2
  HDAC6 activity raw data (signal): 1078978
HDAC6; Conc. 1.23E-07 M, t1
  HDAC6 activity raw data (signal): 1593999
HDAC6; Conc. 1.23E-07 M, t2
  HDAC6 activity raw data (signal): 1556041
HDAC6; Conc. 1.37E-08 M, t1
  HDAC6 activity raw data (signal): 1690122
HDAC6; Conc. 1.37E-08 M, t2
  HDAC6 activity raw data (signal): 1641196
HDAC6; Conc. 1.52E-09 M, t1
  HDAC6 activity raw data (signal): 1700998
HDAC6; Conc. 1.52E-09 M, t2
  HDAC6 activity raw data (signal): 1770848
HDAC6; Conc. 3.33E-06 M, t1
  HDAC6 activity raw data (signal): 689811
HDAC6; Conc. 3.33E-06 M, t2
  HDAC6 activity raw data (signal): 662211
HDAC6; Conc. 3.70E-07 M, t1
  HDAC6 activity raw data (signal): 1440305
HDAC6; Conc. 3.70E-07 M, t2
  HDAC6 activity raw data (signal): 1367836
HDAC6; Conc. 4.12E-08 M, t1
  HDAC6 activity raw data (signal): 1630143
HDAC6; Conc. 4.12E-08 M, t2
  HDAC6 activity raw data (signal): 1649164
HDAC6; Conc. 4.57E-09 M, t1
  HDAC6 activity raw data (signal): 1710532
HDAC6; Conc. 4.57E-09 M, t2
  HDAC6 activity raw data (signal): 1671153
HDAC6; Conc. 5.08E-10 M, t1
  HDAC6 activity raw data (signal): 1797804
HDAC6; Conc. 5.08E-10 M, t2
  HDAC6 activity raw data (signal): 1739375
HDAC2; Conc. 1.00E-05 M, t1
  HDAC2 activity raw data (signal): 1148842
HDAC2; Conc. 1.00E-05 M, t2
  HDAC2 activity raw data (signal): 1124925
HDAC2; Conc. 1.11E-06 M, t1
  HDAC2 activity raw data (signal): 1654730
HDAC2; Conc. 1.11E-06 M, t2
  HDAC2 activity raw data (signal): 1704574
HDAC2; Conc. 1.23E-07 M, t1
  HDAC2 activity raw data (signal): 1694685
HDAC2; Conc. 1.23E-07 M, t2
  HDAC2 activity raw data (signal): 1708262
HDAC2; Conc. 1.37E-08 M, t1
  HDAC2 activity raw data (signal): 1883329
HDAC2; Conc. 1.37E-08 M, t2
  HDAC2 activity raw data (signal): 1685214
HDAC2; Conc. 1.52E-09 M, t1
  HDAC2 activity raw data (signal): 1920222
HDAC2; Conc. 1.52E-09 M, t2
  HDAC2 activity raw data (signal): 1770203
HDAC2; Conc. 3.33E-06 M, t1
  HDAC2 activity raw data (signal): 1489645
HDAC2; Conc. 3.33E-06 M, t2
  HDAC2 activity raw data (signal): 1397108
HDAC2; Conc. 3.70E-07 M, t1
  HDAC2 activity raw data (signal): 1733657
HDAC2; Conc. 3.70E-07 M, t2
  HDAC2 activity raw data (signal): 1639218
HDAC2; Conc. 4.12E-08 M, t1
  HDAC2 activity raw data (signal): 1743081
HDAC2; Conc. 4.12E-08 M, t2
  HDAC2 activity raw data (signal): 1732768
HDAC2; Conc. 4.57E-09 M, t1
  HDAC2 activity raw data (signal): 1828637
HDAC2; Conc. 4.57E-09 M, t2
  HDAC2 activity raw data (signal): 1698186
HDAC2; Conc. 5.08E-10 M, t1
  HDAC2 activity raw data (signal): 1916889
HDAC2; Conc. 5.08E-10 M, t2
  HDAC2 activity raw data (signal): 1862597

## CCCC[C@H]1NC(=O)[C@H](Cc2ccccc2)NC(=O)[C@H](CCCCCS)NC(=O)[C@@H](CCCNC(=N)N)NC(=O)[C@H](C)NC(=O)[C@@H](CO)NC(=O)[C@@H](C)NC(=O)[C@H](CCCCN)NC1=O [des4.3.1.3, SHA-Phe-dNle-Lys-dAla-dSer-Ala-dArg] (HELM PEPTIDE1{A.[dR].[O=C([C@H](CCCCCS)N[*:1])[*:2]].F.[CCCC[C@@H](N[*:1])C(=O)[*:2]].K.[dA].[dS]}$PEPTIDE1,PEPTIDE1,1:R1-8:R2$$$V2.0)
HDAC6
  6-Selectivity: fold potency for HDAC6 over HDAC2: 140 fold
HDAC6; Conc. 1.00E-05 M, t1
  HDAC6 activity raw data (signal): -1435
HDAC6; Conc. 1.00E-05 M, t2
  HDAC6 activity raw data (signal): 8169
HDAC6; Conc. 1.11E-06 M, t1
  HDAC6 activity raw data (signal): 31133
HDAC6; Conc. 1.11E-06 M, t2
  HDAC6 activity raw data (signal): 32571
HDAC6; Conc. 1.23E-07 M, t1
  HDAC6 activity raw data (signal): 145819
HDAC6; Conc. 1.23E-07 M, t2
  HDAC6 activity raw data (signal): 156860
HDAC6; Conc. 1.37E-08 M, t1
  HDAC6 activity raw data (signal): 703698
HDAC6; Conc. 1.37E-08 M, t2
  HDAC6 activity raw data (signal): 730719
HDAC6; Conc. 1.52E-09 M, t1
  HDAC6 activity raw data (signal): 1278425
HDAC6; Conc. 1.52E-09 M, t2
  HDAC6 activity raw data (signal): 1354635
HDAC6; Conc. 3.33E-06 M, t1
  HDAC6 activity raw data (signal): -1405
HDAC6; Conc. 3.33E-06 M, t2
  HDAC6 activity raw data (signal): 24989
HDAC6; Conc. 3.70E-07 M, t1
  HDAC6 activity raw data (signal): 60632
HDAC6; Conc. 3.70E-07 M, t2
  HDAC6 activity raw data (signal): 66340
HDAC6; Conc. 4.12E-08 M, t1
  HDAC6 activity raw data (signal): 363100
HDAC6; Conc. 4.12E-08 M, t2
  HDAC6 activity raw data (signal): 336992
HDAC6; Conc. 4.57E-09 M, t1
  HDAC6 activity raw data (signal): 1071704
HDAC6; Conc. 4.57E-09 M, t2
  HDAC6 activity raw data (signal): 1051810
HDAC6; Conc. 5.08E-10 M, t1
  HDAC6 activity raw data (signal): 1597632
HDAC6; Conc. 5.08E-10 M, t2
  HDAC6 activity raw data (signal): 1554939
HDAC2; Conc. 1.00E-05 M, t1
  HDAC2 activity raw data (signal): 193929
HDAC2; Conc. 1.00E-05 M, t2
  HDAC2 activity raw data (signal): 207672
HDAC2; Conc. 1.11E-06 M, t1
  HDAC2 activity raw data (signal): 922315
HDAC2; Conc. 1.11E-06 M, t2
  HDAC2 activity raw data (signal): 983057
HDAC2; Conc. 1.23E-07 M, t1
  HDAC2 activity raw data (signal): 1473586
HDAC2; Conc. 1.23E-07 M, t2
  HDAC2 activity raw data (signal): 1600746
HDAC2; Conc. 1.37E-08 M, t1
  HDAC2 activity raw data (signal): 1736023
HDAC2; Conc. 1.37E-08 M, t2
  HDAC2 activity raw data (signal): 1721378
HDAC2; Conc. 1.52E-09 M, t1
  HDAC2 activity raw data (signal): 1807312
HDAC2; Conc. 1.52E-09 M, t2
  HDAC2 activity raw data (signal): 1809308
HDAC2; Conc. 3.33E-06 M, t1
  HDAC2 activity raw data (signal): 507679
HDAC2; Conc. 3.33E-06 M, t2
  HDAC2 activity raw data (signal): 555133
HDAC2; Conc. 3.70E-07 M, t1
  HDAC2 activity raw data (signal): 1323328
HDAC2; Conc. 3.70E-07 M, t2
  HDAC2 activity raw data (signal): 1396903
HDAC2; Conc. 4.12E-08 M, t1
  HDAC2 activity raw data (signal): 1569368
HDAC2; Conc. 4.12E-08 M, t2
  HDAC2 activity raw data (signal): 1738468
HDAC2; Conc. 4.57E-09 M, t1
  HDAC2 activity raw data (signal): 1706591
HDAC2; Conc. 4.57E-09 M, t2
  HDAC2 activity raw data (signal): 1632561
HDAC2; Conc. 5.08E-10 M, t1
  HDAC2 activity raw data (signal): 1698338
HDAC2; Conc. 5.08E-10 M, t2
  HDAC2 activity raw data (signal): 1730008

Source: article PMC8185074, “Anchor extension: a structure-guided approach to design cyclic peptides targeting enzyme active sites” (Nature Communications, 2021)
